Earlier results in patent publication US20100035992A1, “Methods and Compositions for Treating Inflammation and Inflammation-Related Pathologies” (priority 2008, published 2010).

Conditions: at 79° F.

water solubility: 34 % w/v
SMILES: CS(C)(=O)=O [MSM, methylsulfonylmethane]
